From US20260294874A1, “COMPOSITIONS COMPRISING MODULATORS OF RIBONUCLEOPROTEIN GRANULE FORMATION AND DISSOLUTION AND METHODS OF USE THEREOF” (University of Virginia Patent Foundation, priority 2023, published 2026)
Entries after “also recorded” stand apart in the source; their conditions may differ. One block for each compound: values may come before it.

How the values were obtained:
Type in all cases: cell-based
[1] = test system: stress granules (G3BP1 foci) in HeLa cells; experiment: Immunofluorescence phenotypic screen for stress granules (α-G3BP1) in stressed HeLa cells; details: 2 h
Description: SuTEx compound treatments. Prior to treatments, cells were washed twice with warm phosphate-buffered saline (PBS) and exchanged with serum-free DMEM (supplemented with 1% L-glutamine) for at least 30 minutes at 37° C. with 5% CO2. Compounds were then added as 1000×DMSO stocks (10 μL for 10 cm dishes and 3 μL for 6-well dishes), plates were mixed gently, and cells were incubated for two hours. All compounds were thoroughly vortexed and sonicated for five minutes prior to addition to ensure complete solvation. For microscopy experiments, cultures were seeded at 150,000 cells in 3 mL of DMEM in 6-well THERMO SCIENTIFIC™ BIOLITE™ brand microwell plates (Catalog No. 12556004; Thermo Fisher Scientific Inc., Waltham, Massachusetts. United States of America). For collection, media was aspirated, and cells were washed once with cold PBS before scraping from plates. Cells were centrifuged at 500×g at 4° C. for 5 minutes and supernatant was removed. Cell pellets were resuspended in cold PBS (1 mL) and centrifuged at 1,400×g at 4° C. for 3 minutes. Supernatant was again removed, and pellets were then snap-frozen in liquid nitrogen and stored at −80° C. until needed.
Immunofluorescence. Immunofluorescence (IF) of HEK293T cells was performed as previously described in Ciancone et al., 2022. HeLa cells were seeded at 9.0×10^4 in a 24-well plate with 12-mm glass coverslips. The next day, the cells were treated with 25 μM SuTEx probe for 2 hours in DMEM medium without FBS. The cells were then treated with 75 μM NaAsO2 for 30 minutes and fixed with 3% paraformaldehyde in PBS for 15 minutes at room temperature (RT) and washed with PBS twice. The fixed cells were permeabilized with PBST (0.1% Triton X-100) for 15 minutes at room temperature and blocked with 5% goat serum in PBST for 30 minutes at RT. The cells were incubated with anti-G3BP1 antibody H-10 (Catalog No. sc-365338 at 1:200 dilution; Santa Cruz Biotechnology, Inc., Dallas, Texas, United States of America) for 2 hours at RT and washed with PBST (0.1% Tween-20) for 5 minutes three times. Next, cells were incubated with goat anti-mouse Alexa 594 antibody (Catalog No. 115-585-003 at 1:800 dilution; Jackson ImmunoResearch, West Grove, Pennsylvania, United States of America) for 30 minutes at RT. The cells were washed twice with PBST, stained with Hoechst 33342 (Catalog No. H3570 at […]; Thermo Fischer Scientific) in PBST for 5 minutes, and washed with PBS twice for 5 minutes. The coverslips were mounted in PROLONG™ Gold AntiFade Mountant (Catalog No. P36930, Thermo Fisher Scientific) and imaged using NIS Elements AR software and a Nikon Eclipse Ti microscope equipped with a ×100 objective and CMOS camera. […] A CellProfiler pipeline was developed to quantify the number of stress granules under each condition. Briefly, cells were recognized as blue^+ (nuclei) red^+ (G3BP1) objects, and the red^+ granules that meet the shape and size threshold were identified and counted. Cells on the border of linages were excluded from the analysis for more accurate quantification.
We used immunofluorescence (IF) detection for phenotypic screening of SuTEx compound activity on stress-induced PB and SG levels in cells (FIG. 1B). PBs were induced through glucose deprivation of HEK293T cells and detected by immunofluorescence with anti-enhancer of mRNA-decapping protein 4 (EDC4) as previously described (Kedersha & Anderson, 2007; Ciancone et al., 2022) (~4 vs 2 PBs/cell in −glucose and +glucose conditions, respectively; FIG. 8). EDC4 is an established PB marker for mammalian cells and is important for PB formation (Kedersha & Anderson, 2007; Luo et al., 2018). SGs were induced in HeLa cells by [COMPOUND LEFT OUT] treatments and detected by fluorescent staining with anti-Ras GTPase-activating protein-binding protein 1 (G3BP1) antibody (75 μM [COMPOUND LEFT OUT], 30 min; FIG. 9). G3BP1 foci have been used in previous IF studies to identify SGs in cells (Kedersha & Anderson, 2007). […]

[2] = molecular target: T1, HNRPK Y72 (Homo sapiens, UniProt P61978); experiment: Competitive ABPP SILAC LC-MS/MS chemical proteomics, HNRPK Y72; details: DMSO (light)/ligand (heavy)
T1 construct: liganded site Y72
Description: (§1) Preparation of SILAC proteomes for LC-MS/MS analysis. SILAC cell proteomes were fractionated to collect the supernatant and normalized to 2.3 mg/mL in PBS. ‘Heavy’ and ‘light’ proteomes were aliquoted (427 μL) and probe-modified proteins were conjugated to desthiobiotin-PEG-3-azide using copper-catalyze azide-alkyne cycloaddition, trypsinized into peptides using Trypsin/Lys-C Mix (Catalog No. V5071; Promega Corporation, Madison, Wisconsin, United States of America), enriched using PIERCE™ Avidin Agarose brand beads (Catalog No. 20219; Thermo Fisher Scientific Inc., Waltham, Massachusetts. United States of America), and prepared for nano-electrospray ionization-LC-MS/MS analysis as previously described in Hahm et al., 2020.
(§2) Data Analysis—Chemical Proteomics. Identification and analysis of peptides and proteins using LC-MS was accomplished using bioinformatics software and quality control parameter protocols as previously described in Hahm et al., 2020.
(§3) We performed quantitative liquid-chromatography tandem mass spectrometry (LC-MS/MS) chemical proteomic studies to identify the target protein and binding site(s) of SuTEx fragments with RNP granule modulating activity. […]
(§4) We detected ~8,700 probe-modified sites (Tyr and Lys) in our aggregate HeLa and HEK293T chemical proteomic analyses. […]

[3] = molecular target: T2, HSPB1 K123 (Homo sapiens, UniProt P04792); experiment: Competitive ABPP SILAC LC-MS/MS chemical proteomics, HSPB1 K123; details: 25 μM, 2 h; HHS-465 100 μM; DMSO (light)/ligand (heavy)
T2 construct: endogenous in cells; host or cells: SILAC cells (HeLa and HEK293T are named; HeLa inferred for HSPB1/EKT179, as SG modulators were profiled in HeLa)
Description: as §1, §2, §3, §4

[4] = molecular target: T3, EDC3 Y475 (Homo sapiens, UniProt Q96F86); experiment: Competitive ABPP SILAC LC-MS/MS chemical proteomics, EDC3 Y475; details: glucose-deprived HEK293T cells, 25 μM, 2 h
T3 sequence (Q96F86 1-508): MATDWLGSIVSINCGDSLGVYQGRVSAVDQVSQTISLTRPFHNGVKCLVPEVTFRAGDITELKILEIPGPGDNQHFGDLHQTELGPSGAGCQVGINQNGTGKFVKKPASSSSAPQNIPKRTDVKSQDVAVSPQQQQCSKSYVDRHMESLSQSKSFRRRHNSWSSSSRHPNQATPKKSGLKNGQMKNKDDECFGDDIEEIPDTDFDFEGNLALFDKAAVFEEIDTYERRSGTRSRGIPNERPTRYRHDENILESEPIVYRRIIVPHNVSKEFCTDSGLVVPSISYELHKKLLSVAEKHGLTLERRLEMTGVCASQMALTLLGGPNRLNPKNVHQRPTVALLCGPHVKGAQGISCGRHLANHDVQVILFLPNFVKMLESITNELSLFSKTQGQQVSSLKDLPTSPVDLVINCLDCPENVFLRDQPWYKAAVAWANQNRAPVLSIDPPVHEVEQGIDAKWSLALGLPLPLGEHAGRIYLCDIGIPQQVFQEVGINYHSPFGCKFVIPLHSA
Description: as §1, §2
We performed quantitative liquid-chromatography tandem mass spectrometry (LC-MS/MS) chemical proteomic studies to identify the target protein and binding site(s) of SuTEx fragments with RNP granule modulating activity. […] SILAC light and heavy cells (HEK293T and HeLa) were treated with experimental conditions used for phenotypic screening including the SuTEx ligand pretreatment (25 μM, 2 h) followed by PB (glucose-deprivation, 15 min) and SG induction (75 μM [COMPOUND LEFT OUT], 30 min). Afterwards, cells were lysed, soluble proteomes treated with HHS-465 SuTEx probe (100 μM, 1 h), a global Tyr/Lys-reactive probe used previously for RNP granule investigations (Ciancone et al., 2022), and samples processed to probe-modified peptides for LC-MS/MS analysis as previously reported (Huang et al., 2021), shown in FIG. 10.
as §4

[5] = molecular target: T4, recombinant EDC3 (Homo sapiens, UniProt Q96F86); experiment: Competitive gel-based ABPP, HHS-465 probe labeling of recombinant EDC3 in HEK293T cells; details: 25 μM, 2 h (FIG. 4F); 0.1-100 μM for concentration dependence (FIG. 4D); HHS-465 100 μM, 1 h, RT
T4 construct: FLAG; expressed in transfected cells; host or cells: HEK293T
T4 sequence (Q96F86 1-508): T3 sequence (Q96F86 1-508)
Text: FIGS. 4A-4F. Discovery of a SuTEx ligand for the hyper-reactive EDC3 Y475 site. (FIG. 4A) Overlap of liganded sites from SuTEx PB modulators with reported RNA granule induction-sensitive lysine and tyrosine sites (RISKYs; Ciancone et al., 2022). The five overlapping sites were further compared to previously reported hyper-RISKY sites (Ciancone et al., 2022) resulting in the identification of the tyrosine-475 (Y475) site on EDC3. (FIG. 4B) Representative immunofluorescence images depicting decreased PBs and increased SGs in AHL-030-treated cells under stress conditions. EKT235 is shown as a negative control. See FIGS. 8 and 9 for additional details. (FIG. 4C) Representative MS1 extracted ion chromatograms (EICs) showing EDC3 Y475 (i.e., amino acid 2 of the peptide sequence […]; SEQ ID NO: 1, which corresponds to amino acids 474-500 of the human enhancer of mRNA-decapping protein 3 isoform 1 polypeptide of GENBANK® Accession No. NP_001135915.1) is liganded by AHL-030 but not EKT235 [SILAC ratio or SR>2 for DMSO vehicle (light, red)/SuTEx fragment ligand (heavy, blue) treatment conditions]. Enrichment (HHS-465/DMSO) and 1:1 (HHS-465/HHS-465) controls are shown. SRs are calculated as the integrated area under the curve ratio of light-to-heavy peptide. Data are representative of n=2-3 biologically independent replicates. […] EDC3-expressing HEK293T cells were pretreated with varying concentrations of AHL-030 (0.1-100 μM, 2 hours) followed by lysis and probe labeling of soluble proteomes with HHS-465 (100 μM, 1 h, RT). The in situ IC50 for EDC3 probe labeling inhibition by AHL-030 was estimated to be ~6 μM. […] Data shown are mean±SEM and representative of n=3 biologically independent replicates. […] Western blots comparing recombinant expression of EDC3 (α-FLAG) and loading controls (α-GAPDH) are shown. Data are representative of n=2 biologically independent replicates.
Among the candidate PB-modulating SuTEx compounds, we focused on AHL-030 because of its PB-inhibitory, SG-enhancing activity in stressed cells and ability to ligand the EDC3 Y475 site (SR >2; FIGS. 4B and 4C). Importantly, we identified a restricted number of reproducibly liganded sites (7 in total) in addition to EDC3 Y475 in chemoproteomic profiling studies of AHL-030 (FIG. 12). We further confirmed AHL-030 as an EDC3 ligand using competitive activity-based protein profiling (ABPP; Grams & Hsu, 2022). Recombinant EDC3-expressing HEK293T cells were treated with a panel of RNP granule modulators including AHL-030 and the negative control compound EKT235 to evaluate structure-activity relationships (SAR, 25 μM compounds, 2 h). Cells were lysed and soluble proteomes labeled with HHS-465 (100 μM, 1 h, RT) followed by CuAAC with rhodamine-azide, SDS-PAGE and in-gel fluorescence scanning. […] Using the in vitro IC50, we calculated the lipophilic efficiency (LipE) of AHL-030 to be ~7, which falls in the range of acceptable lipophilicity in relation to potency (Leeson & Springthorpe, 2007).

T2 sequence (P04792 whole entry): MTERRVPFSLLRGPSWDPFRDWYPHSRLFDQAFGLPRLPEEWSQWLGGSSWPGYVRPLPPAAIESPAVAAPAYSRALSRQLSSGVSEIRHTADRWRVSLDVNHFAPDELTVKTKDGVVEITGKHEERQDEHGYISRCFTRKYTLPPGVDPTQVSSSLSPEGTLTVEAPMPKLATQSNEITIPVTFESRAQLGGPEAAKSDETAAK

SILAC ratio (SR), HNRPK Y72 [2]: > 2
Structure (SMILES): O=S(=O)(c1ccc(C(F)(F)F)cc1)n1cc(-c2ccc(F)cc2F)nn1 [EKT166, 4-(2,4-Difluorophenyl)-1-((4-(trifluo•·omethyl)phenyl)sulfonyl)-1H-1,2,3-triazole]
effect on SGs (in words) ([1]; 25 μM): enriched activity; also recorded: inhibited SGs
inhibition at 25 µM ([1]; Homo sapiens, read-out: reduction/inhibition of SGs/cell): > 70%

SILAC ratio (SR), HSPB1 K123 [3]: > 2
Structure (SMILES): O=S(=O)(C1CC1)n1cc(-c2cccc(F)c2)nn1 [EKT179, 1-(Cyclopropylsulfonyl)-4-(3-fluorophenyl)-1H-1,2,3-triazole]

liganding of EDC3 Y475 (in words) [4]: not
inhibition of HHS-465 probe labeling of recombinant EDC3 (in words) [5]: largely inactive
Structure (SMILES): O=S(=O)(C1CC1)n1cc(-c2ccc(-c3ccccc3)cc2)nn1 [EKT235, 4-([1,1′-Biphenyl]-4-yl)-1-(cyclopropylsulfonyl)-1H-1,2,3-triazole]
